Results taken from the supplement of paper PMC10307832.

Columns and labels:
Test in all cases: relative viability (nuclei count vs DMSO), 5 days (fraction); higher = more cells survive
Zebularine + Decitabine = compound: O=c1ncccn1[C@@H]1O[C@H](CO)[C@@H](O)[C@H]1O [Zebularine] + Nc1ncn([C@H]2C[C@H](O)[C@@H](CO)O2)c(=O)n1 [Decitabine] (partner 2 µM)
Procedure, shortened: (§1)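 Relative viability divides the nuclei count in treated wells by that in vehicle wells. Lung cancer cell lines were seeded in 1536-well plates, dosed by pin tool the next day, and fixed and stained after 5 days in one step with final 0.05% Triton X-100, 1% formaldehyde and 1 ug/ml Hoechst. Dosing was a single drug or a fixed anchor-drug dose plus five library-drug doses (not always all listed) in √10 steps, and values are medians of duplicate plates imaged at 4×.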

Zebularine + Trametinib = compound: O=c1ncccn1[C@@H]1O[C@H](CO)[C@@H](O)[C@H]1O [Zebularine] + CC(=O)Nc1cccc(-n2c(=O)n(C3CC3)c(=O)c3c(Nc4ccc(I)cc4F)n(C)c(=O)c(C)c32)c1 [Trametinib] (partner 0.02 µM)
Procedure, shortened: as §1

Zebularine + Linsitinib = compound: O=c1ncccn1[C@@H]1O[C@H](CO)[C@@H](O)[C@H]1O [Zebularine] + C[C@]1(O)C[C@@H](c2nc(-c3ccc4ccc(-c5ccccc5)nc4c3)c3c(N)nccn32)C1 [Linsitinib] (partner 1 µM)
Procedure, shortened: as §1

BI-D1870 + Luminespib = compound: CC(C)CCN1c2nc(Nc3cc(F)c(O)c(F)c3)ncc2N(C)C(=O)C1C [BI-D1870] + CCNC(=O)c1noc(-c2cc(C(C)C)c(O)cc2O)c1-c1ccc(CN2CCOCC2)cc1 [Luminespib] (partner 0.01 µM)
Procedure, shortened: as §1

| Cell Line | relative viability (Zebularine + Decitabine; first compound 1 µM) | relative viability (Zebularine + Decitabine; first compound 3.162 µM) | relative viability (Zebularine + Decitabine; first compound 10 µM) | relative viability (Zebularine + Decitabine; first compound 31.62 µM) | relative viability (Zebularine + Decitabine; first compound 100 µM) | relative viability (Zebularine + Trametinib; first compound 1 µM) | relative viability (Zebularine + Trametinib; first compound 3.162 µM) | relative viability (Zebularine + Trametinib; first compound 10 µM) | relative viability (Zebularine + Trametinib; first compound 31.62 µM) | relative viability (Zebularine + Trametinib; first compound 100 µM) | relative viability (Zebularine + Linsitinib; first compound 1 µM) | relative viability (Zebularine + Linsitinib; first compound 3.162 µM) | relative viability (Zebularine + Linsitinib; first compound 10 µM) | relative viability (Zebularine + Linsitinib; first compound 31.62 µM) | relative viability (Zebularine + Linsitinib; first compound 100 µM) | relative viability (BI-D1870 + Luminespib; first compound 0.04 µM) | relative viability (BI-D1870 + Luminespib; first compound 0.1265 µM) | relative viability (BI-D1870 + Luminespib; first compound 0.4 µM) | relative viability (BI-D1870 + Luminespib; first compound 1.265 µM) | relative viability (BI-D1870 + Luminespib; first compound 4 µM) |
| --- | --- | --- | --- | --- | --- | --- | --- | --- | --- | --- | --- | --- | --- | --- | --- | --- | --- | --- | --- | --- |
| NCI-H322M | 0.712 | 0.636 | 0.614 | 0.696 | 0.675 | 0.489 | 0.515 | 0.481 | 0.551 | 0.509 | 0.945 | 0.902 | 0.721 | 0.849 | 0.685 | 0.956 | 0.84 | 0.884 | 0.88 | 0.774 |
| NCI-H358 | 0.219 | 0.172 | 0.178 | 0.214 | 0.144 | 0.146 | 0.134 | 0.117 | 0.145 | 0.113 | 0.796 | 0.822 | 0.469 | 0.516 | 0.26 | 0.441 | 0.158 | 0.256 | 0.313 | 0.319 |
| NCI-H441 | 0.246 | 0.237 | 0.266 | 0.184 | 0.16 | 0.485 | 0.416 | 0.316 | 0.315 | 0.213 | 0.581 | 0.548 | 0.291 | 0.249 | 0.234 | 0.474 | 0.267 | 0.359 | 0.394 | 0.412 |
| NCI-H460 | 0.549 | 0.504 | 0.236 | 0.467 | 0.112 | 0.24 | 0.182 | 0.0901 | 0.196 | 0.0781 | 1.21 | 1.06 | 0.272 | 0.388 | 0.0365 | 0.0324 | 0.0316 | 0.0261 | 0.0295 | 0.0315 |
| NCI-H520 | 0.552 | 0.49 | 0.399 | 0.299 | 0.233 | 0.651 | 0.698 | 0.544 | 0.314 | 0.229 | 0.98 | 1.02 | 0.47 | 0.297 | 0.199 | 0.207 | 0.209 | 0.243 | 0.22 | 0.194 |
| NCI-H596 | 0.84 | 1.07 | 0.894 | 1.06 | 0.98 | 0.853 | 0.904 | 0.58 | 0.918 | 0.774 | 1.03 | 1.04 | 0.832 | 1.06 | 1.01 | 1.16 | 0.985 | 1.27 | 0.786 | 0.915 |
| NCI-H647 | 0.391 | 0.369 | 0.187 | 0.144 | 0.14 | 0.53 | 0.508 | 0.184 | 0.116 | 0.112 | 1.42 | 1.06 | 0.426 | 0.172 | 0.17 | 0.158 | 0.0954 | 0.206 | 0.31 | 0.107 |
| NCI-H650 | 0.28 | 0.285 | 0.31 | 0.298 | 0.297 | 0.895 | 0.97 | 0.826 | 0.471 | 0.262 | 0.931 | 0.755 | 0.467 | 0.43 | 0.374 | 0.867 | 0.641 | 0.732 | 0.918 | 0.481 |
| NCI-H661 | 0.564 | 0.551 | 0.48 | 0.608 | 0.505 | 0.601 | 0.596 | 0.457 | 0.651 | 0.639 | 0.499 | 0.541 | 0.58 | 0.539 | 0.633 | 0.961 | 0.935 | 0.988 | 1.01 | 0.877 |
| NCI-H727 | 0.855 | 0.903 | 0.867 | 0.84 | 0.826 | 0.385 | 0.35 | 0.401 | 0.396 | 0.444 | 0.3 | 0.3 | 0.286 | 0.365 | 0.203 | 0.235 | 0.354 | 0.302 | 0.332 | 0.314 |
| NCI-H838 | 0.504 | 0.49 | 0.489 | 0.42 | 0.289 | 0.58 | 0.537 | 0.415 | 0.437 | 0.231 | 1.14 | 1.02 | 0.733 | 0.751 | 0.319 | 0.309 | 0.343 | 0.236 | 0.295 | 0.319 |
| NCI-H1355 | 0.34 | 0.329 | 0.334 | 0.314 | 0.28 | 0.449 | 0.45 | 0.468 | 0.383 | 0.335 | 1 | 0.769 | 0.752 | 0.513 | 0.283 | 0.802 | 0.675 | 0.649 | 0.737 | 0.573 |
| NCI-H1395 | 0.678 | 0.755 | 0.82 | 0.709 | 0.623 | 1.15 | 1.05 | 0.966 | 0.767 | 0.62 | 1.03 | 1.09 | 0.869 | 0.653 | 0.533 | 0.623 | 0.532 | 0.675 | 0.504 | 0.521 |
| NCI-H1437 | 0.617 | 0.639 | 0.464 | 0.686 | 0.528 | 0.545 | 0.532 | 0.419 | 0.619 | 0.661 | 1.18 | 1.2 |  | 0.989 | 0.342 | 1.17 | 1.06 | 1.11 | 1.11 | 0.855 |
| NCI-H1651 | 0.714 | 0.56 | 0.58 | 0.522 | 0.347 | 0.875 | 0.865 | 0.82 | 0.772 | 0.35 | 1 | 0.893 |  | 0.904 | 0.465 | 0.902 | 0.743 | 0.764 | 1.03 | 0.843 |
| NCI-H1666 | 0.8 | 0.736 | 0.698 | 0.712 | 0.669 | 0.884 | 0.817 | 0.699 | 0.865 | 0.842 | 0.748 | 0.862 | 0.675 | 0.804 | 0.562 | 1.02 | 0.977 | 1.01 | 1.05 | 0.825 |
| NCI-H1734 | 0.445 | 0.828 | 0.421 | 0.516 | 0.295 | 0.738 | 0.641 | 0.527 | 0.54 | 0.275 | 0.917 | 0.87 | 0.526 | 0.532 | 0.333 | 0.19 | 0.175 | 0.188 | 0.187 | 0.222 |
| NCI-H1755 | 0.713 | 0.715 | 0.703 | 0.786 | 0.615 | 0.885 | 0.766 | 0.726 | 0.761 | 0.61 | 0.722 | 1.01 | 0.844 | 1 | 0.506 | 0.577 | 0.542 | 0.413 | 0.771 | 0.316 |
| NCI-H1792 | 0.62 | 0.531 | 0.292 | 0.292 | 0.254 | 0.472 | 0.351 | 0.187 | 0.176 | 0.182 | 0.571 | 0.441 | 0.541 | 0.267 | 0.296 | 0.505 | 0.432 | 0.393 | 0.592 | 0.344 |
| NCI-H1793 | 0.471 | 0.523 | 0.292 | 0.328 | 0.218 | 0.466 | 0.477 | 0.257 | 0.269 | 0.21 | 0.882 | 0.978 | 0.365 | 0.464 | 0.197 | 0.176 | 0.16 | 0.194 | 0.146 | 0.167 |
| NCI-H1915 | 0.284 | 0.278 | 0.261 | 0.265 | 0.282 | 0.315 | 0.31 | 0.322 | 0.319 | 0.287 | 1.09 | 1.08 | 1.07 | 1.09 | 0.94 | 0.957 | 0.673 | 0.732 | 0.873 | 0.761 |
| NCI-H1944 | 0.455 | 0.424 | 0.449 | 0.461 | 0.395 | 0.481 | 0.411 | 0.45 | 0.498 | 0.419 | 1.34 | 1.14 | 0.979 | 1.19 | 0.784 | 0.841 | 0.691 | 0.669 | 0.879 | 0.763 |
| NCI-H1975 | 0.428 | 0.346 | 0.345 | 0.35 | 0.267 | 0.298 | 0.268 | 0.338 | 0.283 | 0.222 | 1.01 | 0.861 | 0.582 | 0.456 | 0.271 | 0.27 | 0.101 | 0.308 | 0.257 | 0.208 |
| NCI-H1993 | 0.639 | 0.602 | 0.506 | 0.601 | 0.703 | 0.55 | 0.506 | 0.51 | 0.574 | 0.367 | 0.775 | 0.637 |  | 0.795 | 0.657 | 1 | 0.629 | 0.972 | 1 | 0.834 |
| NCI-H2009 | 0.386 | 0.36 | 0.33 | 0.383 | 0.266 | 0.294 | 0.276 | 0.274 | 0.243 | 0.197 | 1.17 | 1.15 | 1.03 | 0.984 | 0.386 | 1.1 | 1.01 | 0.93 | 0.999 | 0.59 |
| NCI-H2023 | 0.243 | 0.22 | 0.166 | 0.199 | 0.182 | 0.595 | 0.636 | 0.367 | 0.523 | 0.308 | 0.664 | 0.689 | 0.604 | 0.63 | 0.303 | 1.03 | 0.48 | 0.685 | 0.795 | 0.385 |
